Key:
Format in all cases: cell-based
human PGD receptor = target: T1, human PGD receptor (Homo sapiens, UniProt Q13258); experiment: cAMP antagonism test on the human prostaglandin D receptor (HTRF cAMP detection); settings: selectivity towards hDP, IC50 measured by cAMP antagonism test
T1 sequence (Q13258 1-359): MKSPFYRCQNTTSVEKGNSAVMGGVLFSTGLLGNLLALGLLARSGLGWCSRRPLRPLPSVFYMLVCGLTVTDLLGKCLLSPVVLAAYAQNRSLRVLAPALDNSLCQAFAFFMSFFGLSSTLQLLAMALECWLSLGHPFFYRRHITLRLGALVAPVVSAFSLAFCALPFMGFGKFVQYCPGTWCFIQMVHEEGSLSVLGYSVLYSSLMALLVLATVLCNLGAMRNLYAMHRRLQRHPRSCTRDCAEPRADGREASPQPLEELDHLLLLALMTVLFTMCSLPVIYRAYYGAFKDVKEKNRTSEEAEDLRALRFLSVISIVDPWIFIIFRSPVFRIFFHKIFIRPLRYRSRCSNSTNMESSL
Summary of the method: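 HTRF competition read-out (665/620 nm ratio ×10000), where higher FRET means less cAMP, i.e. antagonism. Compounds (0.8 nM–16.5 μM) were preincubated 20 min at RT with cells and cAMP-d2, PGD2 (3× solution, 6 nM) in IBMX-containing PBS added for 30 min at RT, then cells lysed 20 min.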

[1] = target: EP4 subtype of the human PGE2 receptor (Homo sapiens, UniProt P35408); experiment: cAMP antagonism test on the human EP4 receptor (HTRF cAMP detection); settings: selectivity towards hEP4, IC50 measured by cAMP antagonism test
Sequence of EP4 subtype of the human PGE2 receptor (P35408 whole entry): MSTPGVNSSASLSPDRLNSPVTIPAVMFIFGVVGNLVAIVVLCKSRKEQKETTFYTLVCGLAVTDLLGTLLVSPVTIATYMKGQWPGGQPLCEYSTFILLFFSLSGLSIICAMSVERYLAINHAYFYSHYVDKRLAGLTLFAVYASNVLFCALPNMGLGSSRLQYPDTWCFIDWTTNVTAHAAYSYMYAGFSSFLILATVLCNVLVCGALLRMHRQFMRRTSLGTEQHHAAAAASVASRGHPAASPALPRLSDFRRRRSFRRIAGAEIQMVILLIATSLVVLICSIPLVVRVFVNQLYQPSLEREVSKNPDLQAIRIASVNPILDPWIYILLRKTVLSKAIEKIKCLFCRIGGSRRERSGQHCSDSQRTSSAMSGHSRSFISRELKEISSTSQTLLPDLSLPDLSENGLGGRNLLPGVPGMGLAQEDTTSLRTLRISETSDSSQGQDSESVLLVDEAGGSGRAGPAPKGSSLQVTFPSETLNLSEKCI
Summary of the method: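 Competitive HTRF cAMP read-out (cAMP-d2 vs Eu-cryptate anti-cAMP antibody, 665/620 nm ratio) on lysed human EP4 cells. Compound (0.8 nM–16.5 μM) applied 20 min at RT before 60 min PGE2 challenge (3× solution 0.3 nM, IBMX present); 20 min lysis precedes reading.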

[2] = target: EP2 subtype of the human PGE2 receptor (Homo sapiens, UniProt P43116); experiment: cAMP antagonism test on the human EP2 receptor (HTRF cAMP detection); settings: hEP2 receptor, read-out: Antagonism hEP2 IC50
Sequence of EP2 subtype of the human PGE2 receptor (P43116 whole entry): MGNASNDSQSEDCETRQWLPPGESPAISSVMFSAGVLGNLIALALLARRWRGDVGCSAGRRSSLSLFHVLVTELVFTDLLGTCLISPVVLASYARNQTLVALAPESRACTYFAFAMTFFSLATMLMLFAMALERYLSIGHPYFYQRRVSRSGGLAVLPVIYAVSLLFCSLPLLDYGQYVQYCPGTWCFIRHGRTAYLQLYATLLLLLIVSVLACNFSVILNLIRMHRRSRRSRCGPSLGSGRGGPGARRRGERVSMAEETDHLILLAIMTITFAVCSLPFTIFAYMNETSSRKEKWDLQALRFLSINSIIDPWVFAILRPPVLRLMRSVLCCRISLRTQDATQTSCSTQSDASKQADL
Summary of the method: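 Read-out is a competitive HTRF for cAMP: lysate cAMP displaces cAMP-d2 from Eu cryptate-labelled antibody, and antagonism raises the 665/620 nm ratio. Compound (0.8 nM–16.5 μM) added to EP2 cells 20 min at RT before 60 min PGE2 challenge (3× stock 1.5 nM) with IBMX, followed by 20 min lysis.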

Compound | Selectivity hEP2/hDP (human PGD receptor) | Selectivity hEP2/hEP4 [1] | IC50 [2] [nM]
Cc1c(C(=O)NCC(F)(F)F)ccc2nn(CC3CN(C(=O)c4ccc(Oc5ccc(Cl)cc5)cc4)C3)cc12 [Example 165, 2-({1-[4-(4-chlorophenoxy)benzoyl]azetidin-3-yl}methyl)-4-methyl-N-(2,2,2-trifluoroethyl)-2H-indazol-5-carboxamide] | xxx (xxx > 100) | xxx (xxx > 100) | 33.4
COCCNC(=O)c1ccc2nn(CC3CCN(C(=O)c4ccc(Oc5ccc(C#N)cn5)cc4)CC3)cc2c1C [Example 356, 2-[(1-{4-[(5-cyanopyridin-2-yl)oxy]benzoyl}piperidin-4-yl)methyl]-N-(2-methoxyethyl)-4-methyl-2H-indazol-5-carboxamide] | xxx (xxx > 100) | xxx (xxx > 100) | 63.6
COCCNC(=O)c1cc2cn(CC3CN(C(=O)c4ccc(OC(F)(F)F)cc4)C3)nc2cc1C [Example 181, N-(2-methoxyethyl)-6-methyl-2-({1-[4-(trifluoromethoxy)benzoyl]azetidin-3-yl}methyl)-2H-indazol-5-carboxamide] | xxx (xxx > 100) | xxx (xxx > 100) | 35.2
Cc1c(C(=O)NCCOC(F)(F)F)ccc2nn(CC3CCN(C(=O)c4ccc(Oc5ccc(C(F)(F)F)cc5)cc4)CC3)cc12 [Example 110, 4-methyl-N-[2-(trifluoromethoxy)ethyl]-2-[(1-{4-[4-(trifluoro-methyl)phenoxy]-benzoyl}piperidin-4-yl)-methyl]-2H-indazol-5-carboxamide] | xxx (xxx > 100) | xxx (xxx > 100) | 4.4
Cc1c(C(=O)NCCSC(F)(F)F)ccc2nn(CC3CN(C(=O)c4ccc(S(F)(F)(F)(F)F)cc4)C3)cc12 [Example 135, 4-methyl-2-({1-[4-(pentafluoro-λ^6-sulphanyl)benzoyl]azetidin-3-yl}methyl)-N-{2-[(trifluoromethyl)sulphanyl]ethyl}-2H-indazol-5-carboxamide] | xxx (xxx > 100) | xxx (xxx > 100) | 19.5
Cc1c(C(=O)NCCS(C)(=O)=O)ccc2nn(CC3CCN(C(=O)c4ccc(Oc5ccc(C(F)(F)F)cc5)cc4)CC3)cc12 [Example 245, N-(2-mesylethyl)-4-methyl-2-[(1-{4-[4-(trifluoromethyl)phenoxy]benzoyl}-piperidin-4-yl)methyl]-2H-indazol-5-carboxamide] | xxx (xxx > 100) | xxx (xxx > 100) | 7.79
Cc1c(C(=O)NCC(F)(F)F)ccc2nn(CC3CCN(C(=O)c4nc5ccccc5n4C)CC3)cc12 [Example 297, 4-methyl-2-({1-[(1-methyl-1H-benzimidazol-2-yl)carbonyl]piperidin-4-yl}-methyl)-N-(2,2,2-trifluoroethyl)-2H-indazol-5-carboxamide] | xx (xx: 10-100) | xx (xx: 10-100) | 460
COCCNC(=O)c1ccc2nn(CC3CCN(C(=O)c4ccc(S(C)(=O)=O)cc4F)CC3)cc2c1C [Example 6, 2-{[1-(2-fluoro-4-mesylbenzoyl)piperidin-4-yl]methyl}-N-(2-methoxyethyl)-4-methyl-2H-indazol-5-carboxamide] | xx (xx: 10-100) | xx (xx: 10-100) | 313
COCCNC(=O)c1cc2cn(CC3CN(C(=O)c4ccc(Cl)cc4F)C3)nc2cc1C [Example 183, 2-{[1-(4-chloro-2-fluorobenzoyl)azetidin-3-yl]methyl}-N-(2-methoxyethyl)-6-methyl-2H-indazol-5-carboxamide] | xxx (xxx > 100) | xxx (xxx > 100) | 46.6
COCCNC(=O)c1ccc2nn(CC3CCN(C(=O)c4ccc(-c5ccncc5)c(C)c4)CC3)cc2c1C [Example 393, N-(2-methoxyethyl)-4-methyl-2-({1-[3-methyl-4-(4-pyridyl)benzoyl]piperidin-4-yl}methyl)-2H-indazol-5-carboxamide] | xxx (xxx > 100) | xxx (xxx > 100) | 50
COCCNC(=O)c1ccc2nn(CC3CCN(C(=O)c4ccc(-c5cccc(C(F)(F)F)n5)cc4)CC3)cc2c1C [Example 369, N-(2-methoxyethyl)-4-methyl-2-[(1-{4-[6-(trifluoromethyl)pyridin-2-yl]-benzoyl}piperidin-4-yl)methyl]-2H-indazol-5-carboxamide] | xxx (xxx > 100) | xxx (xxx > 100) | 5.66
COCCNC(=O)c1ccc2nn(CC3CCN(C(=O)c4ccc(-n5cnnc5)cc4)CC3)cc2c1C [Example 52, N-(2-methoxyethyl)-4-methyl-2-((1-[4-(4H-1,2,4-triazol-4-yl)benzoyl]piperidin-4-yl}methyl)-2H-indazol-5-carboxamide] | xx (xx: 10-100) | xx (xx: 10-100) | 830
COCCNC(=O)c1ccc2nn(CC3CCN(C(=O)c4ccc(Oc5ccc(F)cc5)cc4)CC3)cc2c1OCC(F)(F)F [Example 233, 2-({1-[4-(4-fluorophenoxy)benzoyl]piperidin-4-yl}methyl)-N-(2-methoxyethyl)-4-(2,2,2-trifluoroethoxy)-2H-indazol-5-carboxamide] | xxx (xxx > 100) | xxx (xxx > 100) | 39.7
Cc1c(C(=O)NCC#N)ccc2nn(CC3CCN(C(=O)c4ccc(Oc5ccc(C(F)(F)F)cc5)cc4)CC3)cc12 [Example 247, N-(cyanomethyl)-4-methyl-2-[(1-{4-[4-(trifluoromethyl)phenoxy]benzoyl}piperidin-4-yl)methyl]-2H-indazol-5-carboxamide] | xxx (xxx > 100) | xxx (xxx > 100) | 12.6

Other lines, results leading:

Selectivity hEP2/hDP (human PGD receptor) | Selectivity hEP2/hEP4 [1] | IC50 [2] [nM] | Compound
xxx (xxx > 100) | xxx (xxx > 100) | 8.88 | COCCNC(=O)c1ccc2nn(CC3CCN(C(=O)c4nc5ccccc5s4)CC3)cc2c1C [Example 348, 2-{[1-(benzothiazol-2-ylcarbonyl)piperidin-4-yl]methyl}-N-(2-methoxyethyl)-4-methyl-2H-indazol-5-carboxamide]
xxx (xxx > 100) | xxx (xxx > 100) | 42.6 | Cc1c(C(=O)NCC(F)(F)F)ccc2nn(CC3CCN(C(=O)c4cc5ccccc5n4C)CC3)cc12 [Example 290, 4-methyl-2-({1-[(1-methyl-1H-indol-2-yl)carbonyl]piperidin-4-yl}methyl)-N-(2,2,2-trifluoroethyl)-2H-indazol-5-carboxamide]
xxx (xxx > 100) | xxx (xxx > 100) | 6.44 | COCCNC(=O)c1ccc2nn(CC3CCN(C(=O)c4ccc(-c5ccccc5)c(F)c4)CC3)cc2c1C [Example 49, 2-({1-[(2-fluoro-biphenyl-4-yl)-carbonyl]piperidin-4-yl}methyl)-N-(2-methoxyethyl)-4-methyl-2H-indazol-5-carboxamide]
xx (xx: 10-100) | xx (xx: 10-100) | 335 | Cc1c(C(=O)NCC(C)C)ccc2nn(CC3CCN(C(=O)c4ccc(Cl)cc4)CC3)cc12 [Example 243, 2-{[1-(4-chlorobenzoyl)piperidin-4-yl]methyl}-N-isobutyl-4-methyl-2H-indazol-5-carboxamide]
xxx (xxx > 100) | xxx (xxx > 100) | 6.58 | COCCNC(=O)c1ccc2nn(CC3CN(C(=O)c4ccc(Oc5ccc(C(F)(F)F)cn5)cc4)C3)cc2c1C [Example 174, N-(2-methoxyethyl)-4-methyl-2-{[1-(4-{[5-(trifluoromethyl)pyridin-2-yl]oxy}benzoyl)azetidin-3-yl]methyl}-2H-indazol-5-carboxamide]
xx (xx: 10-100) | xx (xx: 10-100) | 241 | Cc1c(C(=O)NCC(F)(F)F)ccc2nn(CC3CN(C(=O)c4ccc(OC(F)(F)F)cc4)C3)cc12 [Example 130, 4-methyl-N-(2,2,2-trifluoroethyl)-2-({1-[4-(trifluoromethoxy)benzoyl]azetidin-3-yl}methyl)-2H-indazol-5-carboxamide]
xxx (xxx > 100) | xxx (xxx > 100) | 7.66 | COCCNC(=O)c1ccc2nn(CC3CCN(C(=O)c4ccc(Oc5ccc(OC)cc5)cc4)CC3)cc2c1C [Example 18, N-(2-methoxyethyl)-2-({1-[4-(4-methoxy-phenoxy)benzoyl]-piperidin-4-yl}-methyl)-4-methyl-2H-indazol-5-carboxamide]

— patent US9062041B2 (Bayer Intellectual Property GmbH, priority 2011, dated 2015)
